Assay results reported in the NIST ThermoML archive (doi:10.1021/acs.jced.5b00242).

Experiments:
[1] = Liquid; for viscosity: 101 kPa; for mass density: 101.33 kPa, Vibrating tube method
[2] = refractive index (Na D-line) (dimensionless); conditions: 101 kPa, Liquid, Standard Abbe refractometry

CCn1cc[n+](C)c1.NCC(=O)[O-] [1-ethyl-3-methylimidazolium ammonioacetate]
[1], Stabinger viscometer
Conditions	viscosity [mPa·s]
293.15 K	240.18
298.15 K	171.97
303.15 K	126.19
308.15 K	95.04
313.15 K	73.5
318.15 K	57.66
323.15 K	46.21
328.15 K	37.66
333.15 K	31.24
338.15 K	26.08
343.15 K	22.11
348.15 K	18.95
353.15 K	16.45

Conditions	mass density, [1] [kg/m3]	refractive index, [2]
293.15 K	1164.3	1.52134
298.15 K	1161.2	1.51997
303.15 K	1158.1	1.5186
308.15 K	1155	1.51724
313.15 K	1152	1.51585
318.15 K	1149	1.5145
323.15 K	1146	1.51313
328.15 K	1143	1.51179
333.15 K	1139.9	1.51041
338.15 K	1136.9	1.50904
343.15 K	1133.8	1.50769
348.15 K	1130.7	1.50637
353.15 K	1127.4	1.50495

CCn1cc[n+](C)c1.NCCS(=O)(=O)[O-] [1-ethyl-3-methylimidazolium taurinate]
[1], Stabinger Viscometer
Conditions	viscosity [mPa·s]
293.15 K	760.89
298.15 K	514.67
303.15 K	359.36
308.15 K	258.04
313.15 K	190.44
318.15 K	143.31
323.15 K	110.35
328.15 K	86.59
333.15 K	69.36
338.15 K	56.05
343.15 K	46.1
348.15 K	38.4
353.15 K	32.53

Conditions	mass density, [1] [kg/m3]	refractive index, [2]
293.15 K	1255	1.5135
298.15 K	1251.5	1.51217
303.15 K	1248.1	1.51084
308.15 K	1244.8	1.5095
313.15 K	1241.6	1.50816
318.15 K	1238.6	1.5068
323.15 K	1235.5	1.50543
328.15 K	1232.4	1.50403
333.15 K	1229.2	1.5027
338.15 K	1226.1	1.50136
343.15 K	1223	1.49997
348.15 K	1219.9	1.4986
353.15 K	1216.8	1.49726

CC[n+]1ccn(C)c1.N[C@@H](CO)C(=O)[O-] [3-ethyl-1-methyl-1H-imidazolium L-serinate]
[1], Stabinger Viscometer
Conditions	viscosity [mPa·s]
293.15 K	3796.8
298.15 K	2235.5
303.15 K	1376.2
308.15 K	882.82
313.15 K	588.27
318.15 K	405.12
323.15 K	287.6
328.15 K	209.91
333.15 K	157.29
338.15 K	119.86
343.15 K	93.36
348.15 K	74.03
353.15 K	59.91

Conditions	mass density, [1] [kg/m3]	refractive index, [2]
293.15 K	1206.8	1.52699
298.15 K	1203.7	1.52565
303.15 K	1200.5	1.52429
308.15 K	1197.3	1.52294
313.15 K	1194	1.52159
318.15 K	1190.9	1.52022
323.15 K	1187.8	1.51887
328.15 K	1184.7	1.51755
333.15 K	1181.7	1.5162
338.15 K	1178.7	1.51486
343.15 K	1175.7	1.51353
348.15 K	1172.8	1.5122
353.15 K	1169.7	1.51084
